Where two headings read alike, the source gives them in different places.
Tests used:
[1] = parameters: method as in O'Brien and Dietrich [2005]; Ringot et al. [2006]; conditions: human; ref O'Brien and Dietrich [2005]; Ringot et al. [2006]; cited from earlier work
[2] = Intravital two-photon imaging of OTA transport in the liver; format: in vivo, mice
Description: (§1) Intravital imaging of OTA transport in the livers and the kidneys of anesthetized wild-type and albumin knockout mice was done using an inverted two-photon microscope (LSM MP7, Zeiss, Germany). Details of the surgical preparation of the mice and exposure of the liver and the kidneys for imaging were previously described (Ghallab et al. [2021a]; Reif et al. [2017]). Tissue morphology was visualized by intravenous administration of the mitochondrial membrane potential marker tetramethylrhodamine ethyl ester (TMRE) (#T669, ThermoFisher Scientific) approximately 10 min before recording (Table 2). To image its transport kinetics in the liver and kidneys, a bolus of OTA (5 mg/kg) was administered via a tail vein catheter (SAI-infusion, IL, USA) within approximately 20 s after the onset of recording; the first few frames recorded prior to the OTA administration served to detect the basal tissue auto-fluorescence (Table 2). The mice were kept under controlled ambient temperature conditions of 36 °C, with exposure to a maintenance isoflurane inhalation anesthesia during the entire recording session.
(§2) During image processing, rigid body registration was performed using StackReg (Thévenaz et al. [1998]) to compensate for tissue movement in the recorded time series. From these stabilized videos, 2D projections were generated using average and standard deviation operators. The pixel classification and autocontext workflows of the interactive image segmentation software ilastik (version 1.3.3post1) (Berg et al. [2019]) were used for compartment segmentation in the 2D projections of liver and kidney. The compartments considered are sinusoids, hepatocyte cytoplasm and bile canaliculi in the liver, as well as inter-tubular capillaries, renal tubular lumen, and the tubular epithelial cells in the kidney. Mean raw OTA intensities were measured per compartment and frame. In addition, for the kidney, mean OTA intensities per tubule were measured based on the signal in the TMRE positive cell compartment, and tubules were subsequently grouped into two sets using k-means clustering based on their maximum mean OTA intensity over time.
(§3) For the calculation of the elimination half-life, Microsoft excel was used. First, the decadic logarithm of the intensity was plotted against the time. Then, the linear declining portion of the curve was selected manually and used for construction of a trend line. Next, the slope of the trendline was multiplied by 2.303 to convert the decadic to the natural logarithm and enable usage of the following formulas: • kel = -slope (Certara knowledgebase) • T ½ = ln (2) /kel (Certara knowledgebase)

HSA = system: HSA; parameters: method as in Poor et al. [2013]; Sueck et al. [2018]; conditions: ref Poor et al. [2013], Sueck et al. [2018]; cited from earlier work
mice [3] = system: mice; parameters: method as in Bendele et al. [1985]; Kanisawa and Suzuki [1978]; conditions: mice-fed diets containing 40 ppm, equivalent to 5.6 mg/kg b.w. per day; ref Bendele et al. [1985]; Kanisawa and Suzuki [1978]; cited from earlier work
[4] = system: wild-type and albumin knockout mice; test: Ochratoxin A toxicity experiment: kidney (histopathology, creatinine, BUN, CD45); format: in vivo; conditions: 24 h
Procedure: (§4) To study the role of albumin in OTA toxicity, 8-week-old female homozygote and heterozygote albumin-deficient mice, and corresponding C57BL/6 J wild-type controls were challenged intravenously with 10 mg/kg OTA (#10470691, Fisher Scientific) dissolved in 0.1 M NaHCO3, pH 7.4, with an application volume of 2 ml/kg. On day 1 after OTA injection, heart blood samples were collected, and plasma was separated according to a standard protocol (Gianmoena et al. [2021]). In addition, tissue specimens were collected from the left liver lobe and kidneys, fixed for 2 days in 4% paraformaldehyde (#P087-5, Roth), and finally embedded in paraffin for histopathology and immunohistochemistry analyses (Schneider et al. [2021b]).
(§5) Plasma concentration of albumin, creatinine, and blood urea nitrogen (BUN), as well as activities of alanine transaminase (ALT), and aspartate transaminase (AST) were analyzed by the Piccolo Xpress Chemistry Analyzer (Hitado, Germany) using the Piccolo general chemistry 13 panel (#AB-114-400-0029, Hitado, Germany).
(§6) Hematoxylin and eosin (H&E) staining was performed in 4 µm-thick paraffin-embedded liver and kidney tissue sections as previously described (Campos et al. [2020]).
(§7) Visualization of albumin protein expression in the liver tissue, and immune cell infiltration in the liver and kidney tissues was done by immunohistochemistry using an autostainer (Discovery Ultra Automated Slide Preparation System, Roche, Germany) (Ghallab et al. [2021b]). For this purpose, 4 µm-thick paraffin-embedded liver or kidney tissue sections were incubated with primary antibodies against albumin (# ab192603, abcam), CD45 (a pan leukocyte marker; #550,539, BD Bioscience), and FSP1 (a marker of inflammatory subpopulation of macrophages (Österreicher et al. [2011]) (#ab197896, Abcam). Dilutions of the primary antibodies as well as the used secondary antibodies are described in Table 2. Following staining, entire slides were scanned (Axio Scan.Z1, Zeiss, Germany) and representative images are shown in the results section.

[5] = Intravital two-photon imaging of OTA transport in the kidneys; format: in vivo, mice; conditions: 5 mg/kg tail vein bolus
Description: as §1, §2, §3

[6] = system: wild-type and albumin knockout mice; test: Ochratoxin A toxicity experiment: liver (histopathology, ALT, AST); format: in vivo; conditions: 24 h; for liver histopathology: 10 mg/kg i.v. single dose
Procedure: as §4, §5, §6, §7

[7] = parameters: method as in O'Brien and Dietrich [2005]; Ringot et al. [2006]; conditions: mice, per os; ref O'Brien and Dietrich [2005]; Ringot et al. [2006]; cited from earlier work
[8] = parameters: method as in Perry et al. [2003]; conditions: weak organic acid; ref Perry et al. [2003]; cited from earlier work
[9] = parameters: method as in EFSA [2020]; conditions: ref EFSA [2020]; cited from earlier work
mice [10] = system: mice; parameters: method as in IARC [1993]; conditions: ref IARC [1993], cited from earlier work
[11] = parameters: method as in Anzai et al. [2010]; Ringot et al. [2006]; conditions: ref Anzai et al. [2010]; Ringot et al. [2006]; cited from earlier work
[12] = homozygous albumin knockout mice
[13] = heterozygous albumin knockout mice

C[C@@H]1Cc2c(Cl)cc(C(=O)N[C@@H](Cc3ccccc3)C(=O)O)c(O)c2C(=O)O1 [OTA, Ochratoxin A]
Half-life in blood t1/2 [1]: 35.5 days | transport of OTA to hepatocytes and bile canaliculi ([2]; heterozygous albumin knockout mice, 5 mg/kg tail vein bolus): transient increases in hepatocytes and enrichment in bile canaliculi | disappearance of OTA from blood after bolus injection [2, 12]: completely disappeared from the blood of homozygous albumin knockout mice within a minute | transport of OTA to hepatocytes and bile canaliculi ([2]; homozygous albumin knockout mice, 5 mg/kg tail vein bolus): massively increased canalicular secretion with almost no increase in the hepatocytes | half-life ([2]; mouse, sinusoidal blood (liver), intravenous, homozygous albumin knockout mice, 5 mg/kg tail vein bolus, read-out: half-life of OTA signal in sinusoidal blood): ~0.22 min | transport of OTA to hepatocytes and bile canaliculi ([2]; wild-type mice, 5 mg/kg tail vein bolus): No transport of OTA to hepatocytes and bile canaliculi was detectable | Albumin binding K (HSA): ~10^7 | Albumin binding log K (HSA): 7.0 – 7.6 | tumor induction in chronic toxicity studies (mice [3]): induced liver and kidney tumors | blood biomarkers of kidney damage, creatinine and urea nitrogen ([4]; between the three mouse models, 10 mg/kg i.v.): no significant differences | immune cell infiltration in kidney (CD45) ([4]; wild type and albumin knockout mice, 10 mg/kg i.v.): no obvious immune cell infiltration | macroscopical or histopathological alterations in kidney tissue ([4]; wild-type, heterozygous and homozygous knockout mice, 10 mg/kg i.v. single dose): did not cause obvious macroscopical or histopathological alterations in the kidney tissue | OTA signal in tubular lumen and tubular epithelial cells [5, 13]: a longer duration and higher intensity of the OTA signal in the tubular epithelial cells | OTA signal in tubular lumen and tubular epithelial cells [5, 12]: rapid filtration into the renal tubular lumen and enrichment into the tubular epithelial cells | half-life ([5]; mouse, renal blood capillaries (kidney), intravenous, homozygous albumin knockout mice, read-out: half-life of OTA signal in renal blood capillaries): ~0.28 min | OTA signal in tubular lumen and tubular epithelial cells ([5]; wild-type mice): only a weak, transient increase was seen in the lumen and cytoplasm of the tubular epithelial cells | liver histopathology [6, 13]: massive pericentral necrosis and hemorrhage | blood biomarkers of liver injury ALT and AST ([6]; heterozygous albumin-deficient mice compared to wild-type and homozygous, 10 mg/kg i.v.): significantly increased values | liver histopathology [6, 12]: appeared smaller compared to the heterozygous animals | liver histopathology ([6]; wild-type mice): small clusters of dead cells in the pericentral compartment of the liver lobule | Half-life in blood t1/2 [7]: 40 h | pKa, carboxyl group [8]: 4.3 | pKa, phenolic hydroxyl group [8]: 7.2 | Log Pow [9]: 4.37 | Acute toxicity LD50 (mice [10]; i.v.): 25.7 to 33.8 mg/kg | Acute toxicity LD50 (mice [10]; p.o.): 46 to 58.3 mg/kg | plasma protein-binding capacity [11]: > 99%
